Experimental data: US20160304552A1, “MODIFIED NUCLEIC ACID MOLECULES AND USES THEREOF” (MODERNA THERAPEUTICS, INC., priority 2013, published 2016)

Assays:
[1] = tested on: Rabbit Reticulocyte Lysate; assay: In vitro translation screen, human GCSF modRNA (GCSF ELISA); assay type: biochemical; conditions: Table 20; 250 ng modRNA, 45 min, 30° C.
Description: (§1) The in vitro translation assay was done with the Rabbit Reticulocyte Lysate (nuclease-treated) kit (Promega, Madison, Wis.; Cat. #L4960) according to the manufacturer's instructions. The reaction buffer was a mixture of equal amounts of the amino acid stock solutions devoid of Leucine or Methionine provided in the kit.
(§2) The modRNAs of firefly Luciferase, human GCSF and human EPO, harboring chemical modifications on either the bases or the ribose units, were diluted in sterile nuclease-free water to a final concentration of 250 ng in 2.5 ul (Stock 100 ng/μl). The modRNA (250 ng) was added to the mixture of freshly prepared Rabbit Reticulocyte Lysate and reaction buffer.
(§3) Aliquots of the in vitro translation reaction containing human GCSF modRNA or human EPO mRNA were transferred and analyzed with a human GCSF-specific or EPO ELISA kit (both from R&D Systems, Minneapolis, Minn.; Cat. #s SCS50, DEP00 respectively) according to the manufacturer instructions. All samples were diluted until the determined values were within the linear range of the human GCSF or EPO ELISA standard curve.

[2] = biological target: T7 RNA polymerase (Escherichia phage T7, UniProt P00573); assay: In vitro transcription yields of modified mRNA; assay type: biochemical; conditions: for EPO In Vitro Transcription yield: EPO mRNA made with the modified NTP(s); for GCSF In Vitro Transcription yield: GCSF mRNA made with the modified NTP(s); for Luc In Vitro Transcription yield: Luciferase mRNA made with the modified NTP(s)
Description: The in vitro transcription reaction generates mRNA containing modified nucleotides or modified RNA. The input nucleotide triphosphate (NTP) mix is made in-house using natural and unnatural NTPs.
A typical in vitro transcription reaction includes the following:
Incubation at 37° C. for 3 hr-5 hrs.
The crude IVT mix may be stored at 4° C. overnight for cleanup the next day. 1 U of RNase-free DNase is then used to digest the original template. After 15 minutes of incubation at 37° C., the mRNA is purified using Ambion's […]™ Kit (Austin, Tex.) following the manufacturer's instructions. This kit can purify up to 500 μg of RNA. Following the cleanup, the RNA is quantified using the NanoDrop and analyzed by agarose gel electrophoresis to confirm the RNA is the proper size and that no degradation of the RNA has occurred.
Modified mRNAs in TE buffer (1 μl) are used for Nanodrop UV absorbance readings to quantitate the yield of each modified mRNA from an in vitro transcription reaction (UV absorbance traces are not shown).

[3] = tested on: Rabbit Reticulocyte Lysate; assay: In vitro translation screen, firefly Luciferase modRNA (luciferase assay, relative light units); assay type: biochemical; conditions: Table 20; 250 ng modRNA, 45 min, 30° C.
Description: as §1, §2
After 45 min incubation, the reaction was stopped by placing the plate on ice. Aliquots of the in vitro translation reaction containing luciferase modRNA were transferred to white opaque polystyrene 96-well plates (Corning, Manassas, Va.; Cat. # CLS3912) and combined with 100 ul complete luciferase assay solution (Promega, Madison, Wis.). The volumes of the in vitro translation reactions were adjusted or diluted until no more than 2 million relative light units per well were detected for the strongest signal producing samples. […] The plate reader was a BioTek Synergy H1 (BioTek, Winooski, Vt.).

[4] = tested on: human PBMC; assay: PBMC cytokine assay, interferon-alpha production (IFN-alpha multi-subtype ELISA); assay type: cell-based
Description: 50 mL of human blood from three donors was received from Research Blood Components (Brighton, Mass.) in sodium heparin tubes. […] The tubes were centrifuged at 2000 rpm for 30 minutes with low acceleration and braking (Thermo, Waltham, Mass., 75004506). The tubes were removed and the buffy coat PBMC layers were gently transferred to a fresh 50 mL conical and washed with DPBS. The tubes were centrifuged at 1450 rpm for 10 minutes. The supernatant was aspirated and the PBMC pellets were resuspended and washed in 50 mL of DPBS. The tubes were centrifuged at 1450 rpm for 10 minutes. […] The cell suspensions were adjusted to a concentration of 3.0×10^6 cells/mL live cells. […] Within 30 minutes, transfection mixtures were added to each well at a volume of 50 μL per well. […] The transfection mixtures were then transferred to each of the human PBMC plates at 50 μL per well (6 wells per mRNA sample). The plates were then incubated at 37° C. […] In order to harvest the supernatant, plates were centrifuged at 1450 rpm for 5 min in a swinging plate rotor. The supernatant of 6 wells transfected with the same mRNA was carefully harvested and pooled in a single well of a fresh 96-well plate. Supernatants were either frozen or used fresh until ELISA analysis was done. The ability of unmodified and modified mRNA to trigger innate immune recognition as measured by interferon-alpha production.

[5] = tested on: HeLa cells; assay: Transfection in HeLa cells, Luciferase modRNA (luciferase assay, relative light units); assay type: cell-based, human; conditions: Table 22, 83 ng modRNA, Lipofectamine 2000, 18 h to 22 h
Description: (§4) The day before transfection, 20.000 HeLa cells (ATCC no. CCL-2; Manassas, Va.) were harvested by treatment with Trypsin-EDTA solution (LifeTechnologies, Grand Island, N.Y.) and seeded in a total volume of 100 ul EMEM medium (supplemented with 10% FCS and 1× Glutamax) per well in a 96-well cell culture plate (Corning, Manassas, Va.). The cells were grown at 37° C. in 5% CO2 atmosphere overnight. Next day, 83 ng of Luciferase modRNA or 250 ng of human GCSF modRNA, harboring chemical modifications on the bases or the ribose units, were diluted in 10 ul final volume of OPTI-MEM (LifeTechnologies, Grand Island, N.Y.). Lipofectamine 2000 (LifeTechnologies, Grand Island, N.Y.) was used as transfection reagent and 0.2 μl were diluted in 10 ul final volume of OPTI-MEM. After 5 min incubation at room temperature, both solutions were combined and incubated additional 15 min at room temperature. Then the 20 μl were added to the 100 ul cell culture medium containing the HeLa cells. The plates were then incubated as described before.
After 18 h to 22 h incubation, cells expressing luciferase were lysed with 100 μl Passive Lysis Buffer (Promega, Madison, Wis.) according to manufacturer instructions. Aliquots of the lysates were transferred to white opaque polystyrene 96-well plates (Corning, Manassas, Va.) and combined with 100 ul complete luciferase assay solution (Promega, Madison, Wis.). The lysate volumes were adjusted or diluted until no more than 2 mio relative light units per well were detected for the strongest signal producing samples. […] The plate reader was a BioTek Synergy H1 (BioTek, Winooski, Vt.).

[6] = tested on: HeLa cells; assay: Transfection in HeLa cells, human EPO modRNA (EPO ELISA of supernatant); assay type: cell-based; conditions: Table 22, 18 h to 22 h
Description: as §4
(§5) After 18 h to 22 h incubation, cell culture supernatants of cells expressing human GCSF or human EPO were collected and centrifuged at 10.000 rcf for 2 min. The cleared supernatants were transferred and analyzed with a human GCSF-specific or EPO ELISA kit (both from R&D Systems, Minneapolis, Minn.; Cat. #s SCS50, DEP00, respectively) according to the manufacturer instructions. All samples were diluted until the determined values were within the linear range of the human GCSF or EPO ELISA standard curve.

[7] = tested on: HeLa cells; assay: Transfection in HeLa cells, human GCSF modRNA (GCSF ELISA of supernatant); assay type: cell-based; conditions: Table 22, 250 ng modRNA, 18 h to 22 h
Description: as §4, §5

[8] = tested on: Rabbit Reticulocyte Lysate; assay: In vitro translation screen, human EPO modRNA (EPO ELISA); assay type: biochemical; conditions: Table 20; 250 ng modRNA, 45 min, 30° C.
Description: as §1, §2, §3

Sequence of T7 RNA polymerase (P00573 whole entry): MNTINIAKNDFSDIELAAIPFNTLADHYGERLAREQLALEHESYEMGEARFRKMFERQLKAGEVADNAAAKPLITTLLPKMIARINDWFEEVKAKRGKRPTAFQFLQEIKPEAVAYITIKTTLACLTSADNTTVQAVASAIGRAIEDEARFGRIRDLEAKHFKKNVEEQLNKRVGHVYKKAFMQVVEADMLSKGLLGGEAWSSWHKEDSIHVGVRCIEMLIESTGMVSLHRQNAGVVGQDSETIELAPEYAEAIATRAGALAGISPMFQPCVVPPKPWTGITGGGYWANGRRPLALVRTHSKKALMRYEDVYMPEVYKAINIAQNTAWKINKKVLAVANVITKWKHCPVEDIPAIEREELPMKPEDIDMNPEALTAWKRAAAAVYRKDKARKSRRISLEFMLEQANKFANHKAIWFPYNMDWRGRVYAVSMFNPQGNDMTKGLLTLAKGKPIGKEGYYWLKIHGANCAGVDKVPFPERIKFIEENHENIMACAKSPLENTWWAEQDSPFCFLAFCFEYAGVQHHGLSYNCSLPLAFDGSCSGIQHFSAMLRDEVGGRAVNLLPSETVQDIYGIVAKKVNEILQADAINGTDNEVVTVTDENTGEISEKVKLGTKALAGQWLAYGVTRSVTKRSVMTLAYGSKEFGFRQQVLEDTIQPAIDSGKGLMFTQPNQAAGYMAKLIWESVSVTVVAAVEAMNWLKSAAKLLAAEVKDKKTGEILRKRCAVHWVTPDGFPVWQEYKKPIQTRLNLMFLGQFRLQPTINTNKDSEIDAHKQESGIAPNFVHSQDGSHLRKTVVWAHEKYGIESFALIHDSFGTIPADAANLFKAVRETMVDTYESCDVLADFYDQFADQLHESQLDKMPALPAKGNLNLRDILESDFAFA

Structure (SMILES)	GCSF Expression [1]	EPO In Vitro Transcription yield [2]	GCSF In Vitro Transcription yield [2]	Luc In Vitro Transcription yield [2]	Luc Expression (RLUs) [3]	interferon-alpha concentration in PBMC supernatant ([4]; Luc mRNA, 1st value in cell)	interferon-alpha concentration in PBMC supernatant ([4]; Luc mRNA, 2nd value in cell)	interferon-alpha concentration in PBMC supernatant ([4]; Luc mRNA, 3rd value in cell)	interferon-alpha concentration in PBMC supernatant ([4]; hEPO mRNA, 1st value in cell)	interferon-alpha concentration in PBMC supernatant ([4]; hEPO mRNA, 2nd value in cell)	interferon-alpha concentration in PBMC supernatant ([4]; hEPO mRNA, 3rd value in cell)	interferon-alpha concentration in PBMC supernatant ([4]; hGCSF mRNA, 1st value in cell)	interferon-alpha concentration in PBMC supernatant ([4]; hGCSF mRNA, 2nd value in cell)	interferon-alpha concentration in PBMC supernatant ([4]; hGCSF mRNA, 3rd value in cell)	Luc Expression (RLUs) [5]	Epo Expression [6]	GCSF Expression [7]	Epo Expression [8]	further results
O=c1[nH]c(=S)[nH]cc1[C@@H]1O[C@H](COP(=O)(O)OP(=O)(O)OP(=O)(O)O)C(O)C1O (stereo in doubt) [00901015006 (193), 2-Thio-pseudo-UTP]	5988 pg/mL	1.081 mg	0.5207 mg	0.6123 mg	2198 RLUs	530 pg/mL	1180 pg/mL	1400 pg/mL	-210 pg/mL	675 pg/mL	362.5 pg/mL	358.33 pg/mL	166.66 pg/mL	490 pg/mL	1999 RLUs	380600 pg/mL	239300 pg/mL	12310 pg/mL	
O=c1[nH]cc([C@@H]2O[C@H](COP(O)(=S)OP(=O)(O)OP(=O)(O)O)C(O)C2O)c(=O)[nH]1 (stereo in doubt) [00902015001 (194), PseudoU-alpha-thio-TP]	7763 pg/mL	0.8632 mg	0.5522 mg	0.6479 mg	5221 RLUs										2015 RLUs	302800 pg/mL	320000 pg/mL	2669 pg/mL	Luc (3 Donor samples) ([4]; Luc mRNA, 1st value in cell): 20 pg/mL; Luc (3 Donor samples) ([4]; Luc mRNA, 2nd value in cell): 170 pg/mL; Luc (3 Donor samples) ([4]; Luc mRNA, 3rd value in cell): -90 pg/mL; hEPO (3 Donor samples) ([4]; hEPO mRNA, 1st value in cell): -190 pg/mL; hEPO (3 Donor samples) ([4]; hEPO mRNA, 2nd value in cell): 75 pg/mL; hEPO (3 Donor samples) ([4]; hEPO mRNA, 3rd value in cell): 400 pg/mL; hGCSF (3 Donor samples) ([4]; hGCSF mRNA, 1st value in cell): 50 pg/mL; hGCSF (3 Donor samples) ([4]; hGCSF mRNA, 2nd value in cell): 508.33 pg/mL; hGCSF (3 Donor samples) ([4]; hGCSF mRNA, 3rd value in cell): 640 pg/mL
CC(=O)Nc1ccn([C@@H]2O[C@H](COP(=O)(O)OP(=O)(O)OP(=O)(O)O)C(O)C2O)c(=O)n1 (stereo in doubt) [Compound 00901014007, N4-Ac-CTP]	8794 pg/mL	0.4351 mg	0.3658 mg	0.4394 mg	167600 RLUs	7170 pg/mL	2500 pg/mL	5879 pg/mL	4050 pg/mL	2137.5 pg/mL	5850 pg/mL	5683.33 pg/mL	4883.33 pg/mL	4590 pg/mL	141300 RLUs	2907000 pg/mL	2094000 pg/mL	8675 pg/mL	
COc1cn([C@@H]2O[C@H](COP(=O)(O)OP(=O)(O)OP(=O)(O)O)C(O)C2O)c(=O)[nH]c1=O (stereo in doubt) [Compound 00901013007, 5-methoxy-UTP]	26440 pg/mL	0.1727 mg	0.1546 mg	0.3817 mg	306600 RLUs	390 pg/mL	-70 pg/mL	-170 pg/mL	-210 pg/mL	162.5 pg/mL	150 pg/mL	350 pg/mL	-41.66 pg/mL	40 pg/mL	31580 RLUs	1116000 pg/mL	1399000 pg/mL	17530 pg/mL	
O=c1[nH]c(=O)n([C@@H]2O[C@H](COP(=O)(O)OP(=O)(O)OP(=O)(O)O)C(O)C2O)cc1Br (stereo in doubt) [Compound 00901013009, 5-Bromo-UTP]	21530 pg/mL	0.2617 mg	0.3566 mg	0.3352 mg	218500 RLUs										2731 RLUs	210500 pg/mL	118600 pg/mL	18220 pg/mL	
